Assay results from patent US20260297136A1, “PEPTIDES WITH LIPOLYTIC, ANTI-LIPOGENIC, ANTIFIBROTIC AND ANTI-INFLAMMATORY ACTIVITY” (FUNDACIÓ HOSPITAL UNIVERSITARI VALL D'HEBRON - INSTITUT DE …, priority 2023, published 2026).

Assays:
human mature adipocytes = assay: Lipolysis in human mature adipocytes (glycerol production), Example 3; format: cell-based; settings: 16 h
Protocol: FIG. 4 Mature human subcutaneous adipocytes were treated with vehicle (DMSO), 1 μM of Isoproterenol, Semaglutide (10 nM) or GP6 (25, 50 or 100 μg/ml) for 16 h. Glycerol concentration was assessed using a Lipolysis Assay Kit (Tebu-bio).
Human preadipocytes and cell culture reagents were from purchased from Tebu-Bio (Tebu-bio, Barcelona, Spain) and differentiation protocol was done following the manufacturer's instructions. Human adipocytes were maintained in a humidified incubator with 5% CO2 at 37° C. (Sex hormone-binding globulin overexpression protects against high-fat diet-induced obesity in transgenic male mice. Saez-Lopez C, Villena J A, Simo R, Selva D M. J Nutr Biochem. 2020 November; 85:108480. doi: 10.1016/j.jnutbio.2020.108480).
Lipolysis assays were performed using a Lipolysis Kit (Tebu-Bio) following the manufacturer's instructions as previously described by Saez-Lopez and collaborators (Sex hormone-binding globulin overexpression protects against high-fat diet-induced obesity in transgenic male mice. Saez-Lopez C, Villena J A, Simo R, Selva D M. J Nutr Biochem. 2020 November; 85:108480. doi: 10.1016/j.jnutbio.2020.108480.)

[1] = tested on: obesity and fatty liver disease mouse model; assay: Therapeutic effects in an obesity and fatty liver disease mouse model, Example 6; format: in vivo, C57BL6/J male mice
Protocol: C57BL6/J male mice were purchased and kept for quarantine and acclimatization for a period of about 7 days before initiation of every experiment. Mice were housed in clean and sterilized mice cages and maintained in a controlled environment with 22+3° C. temperature, 50+20% humidity, a light/dark cycle of 12 hours each and 15-20 fresh air changes per hour.
For Obesity and NAFLD induction, the animals were fed ad libitum, either with chow diet (150SP-10, Safe Diets) or 45% high-fat diet (TD.190179, Envigo) plus 30% fructose (F0127, Sigma Aldrich) in drinking water for 20 weeks. The therapeutic effect of a daily subcutaneous injection of GP6 (20 mg/kg/day) in this mouse model was assessed for 10 weeks, starting the treatment on week 10 of the experiment until week 20.
A group of control mice (n=10) was fed with control diet and regular drinking water and a group of mice (n=30) obesity and fatty liver disease was induced for 10 weeks. At this point, mice were randomly divided in three groups of n=10, the first group was treated with daily subcutaneous injections of vehicle (water), the second group was treated with Telmisartan (5 mg/kg/day) in the drinking water and a subcutaneous injection of vehicle, and the third group with daily subcutaneous injection of GP6 (20 mg/kg/day) during 10 weeks.
At the end of the experiment mice were sacrificed, serum samples were extracted, tissues were weighted and part was fixed in paraformaldehyde for histology studies and part immediately frozen at −80 C for mRNA and protein expression studies as well as assessment of triglycerides.
The histology studies, AST and ALT measurements, TG measurements, and the RNA analysis were performed as described in Example 4.

HepG2 cells [2] = assay: Hepatic lipogenesis gene expression in HepG2 cells (24 h), Example 7; format: cell-based, human; settings: 40 μg/ml, vs vehicle
From the text: FIG. 32. Effect of GP6 and modified peptides on hepatic lipogenesis in HepG2 cells. Each bar within each group represents mRNA levels of a key hepatic lipogenic enzyme, from left to right: Acetyl-CoA Carboxylase (ACC), ATP Citrate Lyase (ACLY) and Fatty Acid Synthase (FAS), and a key transcription factor regulating several lipogenic enzymes such as PPARγ (PPARγ).
Cell culture reagents were from Life Technologies Inc (Invitrogen SA, Barcelona, Spain). HepG2 hepatoblastoma cells (cat. no. HB-8065; ATCC, LGC Standards SLU, Barcelona, Spain) were maintained in Dulbecco's modified Eagle medium (DMEM) supplemented with 10% fetal bovine serum and antibiotics.
• HepG2 cells were cultured for 5 day in the absence or presence of 30 mM fructose. Cells cultured in 30 mM fructose were daily treated with vehicle, Telmisartan, Semaglutide or EDL6D. • HepG2 cells were cultured for 24 h in the absence or presence of GP6 (40 μg/ml), GP10 (40 μg/ml), GP11 (40 μg/ml), GP12 (40 μg/ml), GP13 (40 μg/ml) or SHBG (20 nM). • HepG2 cells were cultured in the absence or presence of 30 mM fructose and treated for 2 h with vehicle or GP4 (40 μg/ml), GP6 (40 μg/ml), GP7 (40 μg/ml), GP8 (40 μg/ml), GP9 (40 μg/ml), GP10 (40 μg/ml), GP11 (40 μg/ml), GP12 (40 μg/ml), GP13 (40 μg/ml) or SHBG (20 nM).
Total RNA was extracted from HepG2 and LX-2 cells using TRIzol reagent (Invitrogen SA). Reverse transcription was performed at 42° C. for 50 minutes using […] of total RNA, 200 U of Superscript II, and an oligo-dT primer and reagents provided by Invitrogen. An aliquot of the reverse transcription product was amplified in a […] reaction using SYBRGreen (Invitrogen SA) with appropriate oligonucleotide primer pairs corresponding to human SHBG, ACC, FAS, ACLY, PPARG, and 18S and mouse ACC, FAS, ACLY, PPARG, Col1A1 and 18S. Results were analyzed using the 7000 Sequence Detection System program (Applied Biosystems, Thermo Fisher Scientific, Barcelona, Spain) (Shez-Lopez et al Endocrinology 2017).

HepG2 cells [3] = assay: Hepatic lipogenic key enzymes in HepG2 cells in the presence of 30 mM fructose (2 h), Example 7; format: cell-based, human; settings: 40 μg/ml
[4] = 20 mg/kg/day sc, 10 weeks, vs vehicle
[5] = 20 mg/kg/day sc, 10 weeks, blind pathologist, lipid reduction corroborated

Structure (SMILES): CC[C@@H](C)[C@@H](NC(=O)[C@H](NC(=O)CNC(=O)[C@@H](CCC(=O)O)NC(=O)[C@H]1CCCN1C(=O)[C@@H](CC(=O)O)NC(=O)[C@@H](Cc1c[nH]c2ccccc12)NC(=O)[C@H](NC(=O)[C@@H](CCCNC(=N)N)NC(=O)[C@H](NC(=O)[C@@H](CCC(=O)O)NC(=O)[C@@H](Cc1ccccc1)NC(=O)[C@@H](CO)NC(=O)[C@@H](CO)NC(=O)[C@@H](CO)NC(=O)[C@H](NC(=O)[C@@H](CCCCN)NC(=O)[C@H](N)[C@H](C)O)[C@H](C)O)C(C)C)[C@H](C)O)C(C)C)C(=O)N[C@H](Cc1ccccc1)C(=O)N[C@H](Cc1ccc(O)cc1)C(=O)O [GP6]
- increase of glycerol production (lipolysis) (human mature adipocytes; 25 μg/ml): 200%
- increase of glycerol production (lipolysis) (human mature adipocytes; 50 μg/ml): 270%
- increase of glycerol production (lipolysis) (human mature adipocytes; 100 μg/ml): 315%
- lipolysis induction compared with Semaglutide (human mature adipocytes; GP6 25, 50 or 100 μg/ml versus Semaglutide 10 nM): performing more efficiently than Semaglutide
- AST serum levels ([1]; 20 mg/kg/day sc, 10 weeks): reduced significantly
- hepatic fibrosis (picrosirius staining) ([1]; 20 mg/kg/day sc, 10 weeks): did not showed hepatic fibrosis
- total body weight gain ([1]; 20 mg/kg/day sc, 10 weeks): reducing total body weight gain
- reduction of hepatic lipid accumulation compared with Telmisartan ([1]; 20 mg/kg/day sc, 10 weeks, vs Telmisartan 5 mg/kg/day): to a greater extend than Telmisartan treatment
- Total body weight versus control mice ([1]; 20 mg/kg/day sc, 10 weeks, vs control diet mice): not significantly heavier than control mice
- ACC mRNA levels in hepatic tissue [1, 4]: reduced the mRNA levels
- Col1A1 expression in hepatic tissue [1, 4]: reduced expression levels
- F480 mRNA levels (adipose tissue inflammation) [1, 4]: reduced expression
- F480 mRNA levels in hepatic tissue [1, 4]: reduced expression
- IL1β expression (adipose tissue inflammation) [1, 4]: reduced expression
- PPARγ mRNA levels in hepatic tissue [1, 4]: reduced the mRNA levels
- TGFβ1 expression in hepatic tissue [1, 4]: reduced expression levels
- adipose tissue fibrosis (Col1A mRNA expression) [1, 4]: reduced adipose tissue fibrosis
- heart fibrosis (Col1A1 mRNA expression) [1, 4]: reduced heart fibrosis
- hepatic expression of TNFα [1, 4]: reduced the hepatic expression
- liver triglyceride (TAG) content [1, 4]: reduced significantly
- liver weight [1, 4]: reduced significantly
- serum glucose levels [1, 4]: reduced the increase glucose levels
- hepatic lipid accumulation (histology) ([1]; 20 mg/kg/day sc, 10 weeks, vs vehicle, H&E): reduced significantly
- Brunt score [1, 5]: corroborated
- Steatosis score [1, 5]: corroborated
- Alanine transaminase (ALT) serum levels ([1]; sc, as stated in the summary for Example 6): reduction
- ACC mRNA levels (HepG2 cells [2]): reduced the mRNA levels
- ACLY mRNA levels (HepG2 cells [2]): reduced the mRNA levels
- FAS mRNA levels (HepG2 cells [2]): reduced the mRNA levels
- PPARγ mRNA levels (HepG2 cells [2]): reduced the mRNA levels
- fructose-induced expression of ACC (HepG2 cells [3]): able to reduce
- fructose-induced expression of ACLY (HepG2 cells [3]): able to reduce
- fructose-induced expression of FAS (HepG2 cells [3]): able to reduce
- fructose-induced expression of PPARγ (HepG2 cells [3]): able to reduce
